Measurements reported in patent US9662327B2 (AGIOS PHARMACEUTICALS, INC, priority 2011, dated 2017).
pIC50: −log10 of the molar value.

Target: IDH1 R132H (Homo sapiens (Human), UniProt O75874, R132H)
Assay: Assays for IDH1 R132H Inhibitors (NADPH/aKG, resazurin detection)
Assay type: biochemical
Conditions: IDH1 R132H enzyme, Table 2; read-out: IDHR132H Activity
How it was run: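 Substrate mix held 8 uM NADPH plus 2 mM aKG; buffer was 20 mM Tris pH 7.5 with 150 mM NaCl, 10 mM MgCl2, 0.03% BSA. After 50 min room-temperature reaction, NADPH remaining was detected with 30 μM resazurin mix over 5 min.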

Sequence of IDH1 R132H (O75874 whole entry R132H): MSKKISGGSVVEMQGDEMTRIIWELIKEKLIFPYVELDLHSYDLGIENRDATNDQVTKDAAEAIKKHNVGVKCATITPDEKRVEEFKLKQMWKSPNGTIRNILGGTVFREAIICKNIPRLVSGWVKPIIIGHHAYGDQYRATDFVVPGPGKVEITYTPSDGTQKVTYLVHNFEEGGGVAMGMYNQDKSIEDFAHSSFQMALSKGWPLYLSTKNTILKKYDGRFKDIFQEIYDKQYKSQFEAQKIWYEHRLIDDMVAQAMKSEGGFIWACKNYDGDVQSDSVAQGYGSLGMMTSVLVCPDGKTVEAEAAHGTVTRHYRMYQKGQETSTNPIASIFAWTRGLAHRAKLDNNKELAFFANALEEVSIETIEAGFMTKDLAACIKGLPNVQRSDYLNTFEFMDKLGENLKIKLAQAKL

Row | Compound | pIC50
1 | CSCCC(=O)N1CCN(c2nc(C3CCCCC3)c3c(c2C#N)CCOC3)C[C@H]1C [Compound 264, (R)-8-cyclohexyl-6-(3-methyl-4-(3-(methylthio)propanoyl)piperazin-1-yl)-3,4-dihydro-1H-pyrano[3,4-c]pyridine-5-carbonitrile] | 5.00 to 6.00
2 | CC(C)[C@@H]1CN(c2nc(C3CC3)c3c(c2C#N)CC(C)(C)OC3)CCN1C(=O)Cc1cccnc1 [Compound 265] | > 6.30
3 | CC(C)[C@@H]1CN(c2nc(C3CC3)c3c(c2C#N)CC(C)(C)OC3)CCN1C(=O)C1CCOC1 (some centres unmarked) [Compound 266] | 6.00 to 6.30
4 | CSCCC(=O)N1CCN(c2nc(C(C)C)c3c(c2C#N)CC(C)(C)OC3)C[C@H]1C [Compound 267, (R)-8-isopropyl-3,3-dimethyl-6-(3-methyl-4-(3-(methylthio)propanoyl)piperazin-1-yl)-3,4-dihydro-1H-pyrano[3,4-c]pyridine-5-carbonitrile] | 6.00 to 6.30
5 | COCCC(=O)N1CCN(c2nc(C(C)C)c3c(c2C#N)CC(C)(C)OC3)C[C@H]1C [Compound 268, (R)-8-isopropyl-6-(4-(3-methoxypropanoyl)-3-methylpiperazin-1-yl)-3,3-dimethyl-3,4-dihydro-1H-pyrano[3,4-c]pyridine-5-carbonitrile] | 6.00 to 6.30
6 | CSCCC(=O)N1CCN(c2nc(C3CC3)c3c(c2C#N)CC(C)(C)OC3)C[C@H]1C(C)C [Compound 269, (R)-8-cyclopropyl-6-(3-isopropyl-4-(3-(methylthio)propanoyl)piperazin-1-yl)-3,3-dimethyl-3,4-dihydro-1H-pyrano[3,4-c]pyridine-5-carbonitrile] | > 6.30
7 | COCCC(=O)N1CCN(c2nc(C3CC3)c3c(c2C#N)CC(C)(C)OC3)C[C@H]1C(C)C [Compound 270, (R)-8-cyclopropyl-6-(3-isopropyl-4-(3-methoxypropanoyl)piperazin-1-yl)-3,3-dimethyl-3,4-dihydro-1H-pyrano[3,4-c]pyridine-5-carbonitrile] | > 6.30
8 | CC(C)[C@@H]1CN(c2nc(C3CC3)c3c(c2C#N)CC(C)(C)OC3)CCN1C(=O)c1cccnc1 [Compound 271] | 5.00 to 6.00
9 | CC1(C)Cc2c(C#N)c(N3CCN(C(=O)c4ccco4)[C@H](c4ccccc4)C3)nc(C3CC3)c2CO1 [Compound 272] | 6.00 to 6.30
10 | CC1(C)Cc2c(C#N)c(N3CCN(C(=O)c4ccco4)[C@@H](c4ccccc4)C3)nc(C3CC3)c2CO1 [Compound 273] | 6.00 to 6.30
11 | CC1(C)Cc2c(C#N)c(N3CCN(C(=O)c4ccoc4)[C@H](c4ccccc4)C3)nc(C3CC3)c2CO1 [Compound 274, (R)-8-cyclopropyl-6-(4-(furan-3-carbonyl)-3-phenylpiperazin-1-yl)-3,3-dimethyl-3,4-dihydro-1H-pyrano[3,4-c]pyridine-5-carbonitrile] | 5.00 to 6.00
12 | CC1(C)Cc2c(C#N)c(N3CCN(C(=O)c4ccoc4)[C@@H](c4ccccc4)C3)nc(C3CC3)c2CO1 [Compound 275] | 5.00 to 6.00
13 | CCOC(=O)C1CN(c2nc(C(C)C)c3c(c2C#N)CC(C)(C)OC3)CCN1C(=O)c1ccoc1 (centres unmarked) [Compound 276] | 6.00 to 6.30
14 | CCOC(=O)C1CN(c2nc(C3CCCCC3)c3c(c2C#N)CCOC3)CCN1C(=O)c1ccoc1C (centres unmarked) [Compound 277, ethyl 4-(5-cyano-8-cyclohexyl-3,4-dihydro-1H-pyrano[3,4-c]pyridin-6-yl)-1-(2-methylfuran-3-carbonyl)piperazine-2-carboxylate] | 5.00 to 6.00
15 | CCOC(=O)C1CN(c2nc(C3CCCCC3)c3c(c2C#N)CCOC3)CCN1C(=O)CCOC (centres unmarked) [Compound 278, ethyl 4-(5-cyano-8-cyclohexyl-3,4-dihydro-1H-pyrano[3,4-c]pyridin-6-yl)-1-(3-methoxypropanoyl) piperazine-2-carboxylate] | 5.00 to 6.00
16 | Cc1ccccc1NC(=O)N1CCN(c2nc(C3CCCCC3)c3c(c2C#N)CCOC3)C[C@H]1C [Compound 279, (R)-4-(5-cyano-8-cyclohexyl-3,4-dihydro-1H-pyrano[3,4-c]pyridin-6-yl)-2-methyl-N-o-tolylpiperazine-1-carboxamide] | 5.00 to 6.00
17 | Cc1ccc(NC(=O)N2CCN(c3nc(C4CCCCC4)c4c(c3C#N)CCOC4)C[C@H]2C)cc1 [Compound 280, (R)-4-(5-cyano-8-cyclohexyl-3,4-dihydro-1H-pyrano[3,4-c]pyridin-6-yl)-2-methyl-N-p-tolylpiperazine-1-carboxamide] | 5.00 to 6.00
18 | C[C@@H]1CN(c2nc(C3CCCCC3)c3c(c2C#N)CCOC3)CCN1C(=O)Nc1ccc(F)cc1 [Compound 281, (R)-4-(5-cyano-8-cyclohexyl-3,4-dihydro-1H-pyrano[3,4-c]pyridin-6-yl)-N-(4-fluorophenyl)-2-methylpiperazine-1-carboxamide] | 5.00 to 6.00
19 | CCOc1ccc(NC(=O)N2CCN(c3nc(C4CC4)c4c(c3C#N)CC(C)(C)OC4)C[C@H]2C(C)C)cc1 [Compound 282, (R)-4-(5-cyano-8-cyclopropyl-3,3-dimethyl-3,4-dihydro-1H-pyrano[3,4-c]pyridin-6-yl)-N-(4-ethoxyphenyl)-2-isopropylpiperazine-1-carboxamide] | 5.00 to 6.00

Row | Compound | pIC50
20 | CC(C)[C@@H]1CN(c2nc(C3CC3)c3c(c2C#N)CC(C)(C)OC3)CCN1C(=O)Nc1ccc(F)cc1 [Compound 283] | 5.00 to 6.00
21 | CC(C)[C@@H]1CN(c2nc(C3CC3)c3c(c2C#N)CC(C)(C)OC3)CCN1S(=O)(=O)c1cccs1 [Compound 284, (R)-8-cyclopropyl-6-(3-isopropyl-4-(thiophen-2-ylsulfonyl)piperazin-1-yl)-3,3-dimethyl-3,4-dihydro-1H-pyrano[3,4-c]pyridine-5-carbonitrile] | 5.00 to 6.00
22 | CC(C)[C@@H]1CN(c2nc(C3CC3)c3c(c2C#N)CC(C)(C)OC3)CCN1S(=O)(=O)c1ccc(Cl)s1 [Compound 285, (R)-6-(4-(5-chlorothiophen-2-ylsulfonyl)-3-isopropylpiperazin-1-yl)-8-cyclopropyl-3,3-dimethyl-3,4-dihydro-1H-pyrano[3,4-c]pyridine-5-carbonitrile] | 5.00 to 6.00
23 | CC(C)[C@@H]1CN(c2nc(C3CC3)c3c(c2C#N)CC(C)(C)OC3)CCN1C(=O)NCCc1ccccc1 [Compound 286] | 5.00 to 6.00
24 | CC(C)NC(=O)N1CCN(c2nc(C3CC3)c3c(c2C#N)CC(C)(C)OC3)C[C@H]1C(C)C [Compound 287] | 5.00 to 6.00
25 | CC(C)[C@@H]1CN(c2nc(C3CCC3)c3c(c2C#N)CC(C)(C)OC3)CCN1C(=O)c1ccoc1 [Compound 288, (R)-8-cyclobutyl-6-(4-(furan-3-carbonyl)-3-isopropylpiperazin-1-yl)-3,3-dimethyl-3,4-dihydro-1H-pyrano[3,4-c]pyridine-5-carbonitrile] | > 6.30
26 | CC(C)[C@@H]1CN(c2nc(C3CCC3)c3c(c2C#N)CC(C)(C)OC3)CCN1C(=O)Cc1cccs1 [Compound 289, (R)-8-cyclobutyl-6-(3-isopropyl-4-(2-(thiophen-2-yl)acetyl)piperazin-1-yl)-3,3-dimethyl-3,4-dihydro-1H-pyrano[3,4-c]pyridine-5-carbonitrile] | > 6.30
27 | CC[C@@H]1CN(c2nc(C3CC3)c3c(c2C#N)CC(C)(C)OC3)CCN1C(=O)Cc1ccccn1 [Compound 290] | 5.00 to 6.00
28 | CC[C@@H]1CN(c2nc(C3CC3)c3c(c2C#N)CC(C)(C)OC3)CCN1C(=O)c1cscn1 [Compound 293] | 5.00 to 6.00
29 | CC[C@@H]1CN(c2nc(C3CC3)c3c(c2C#N)CC(C)(C)OC3)CCN1C(=O)Cc1cccnc1 [Compound 294] | 6.00 to 6.30
30 | CC[C@@H]1CN(c2nc(C3CC3)c3c(c2C#N)CC(C)(C)OC3)CCN1C(=O)Cc1ccccc1OC [Compound 295] | 6.00 to 6.30
31 | CC[C@@H]1CN(c2nc(C3CC3)c3c(c2C#N)CC(C)(C)OC3)CCN1C(=O)Cc1cccc(OC)c1 [Compound 296] | 6.00 to 6.30
32 | CC[C@@H]1CN(c2nc(C3CC3)c3c(c2C#N)CC(C)(C)OC3)CCN1C(=O)CCOC [Compound 297, (R)-8-cyclopropyl-6-(3-ethyl-4-(3-methoxypropanoyl)piperazin-1-yl)-3,3-dimethyl-3,4-dihydro-1H-pyrano[3,4-c]pyridine-5-carbonitrile] | > 6.30
33 | CCOC(=O)C1CN(c2nc(C(C)C)c3c(c2C#N)CC(C)(C)OC3)CCN1C(=O)c1ccco1 (centres unmarked) [Compound 298, ethyl 4-(5-cyano-8-isopropyl-3,3-dimethyl-3,4-dihydro-1H-pyrano[3,4-c]pyridin-6-yl)-1-(furan-2-carbonyl)piperazine-2-carboxylate] | 5.00 to 6.00
34 | COc1ccc(NC(=O)N2CCN(c3nc(C4CCCCC4)c4c(c3C#N)CCOC4)C[C@H]2C)cc1 [Compound 299, (R)-4-(5-cyano-8-cyclohexyl-3,4-dihydro-1H-pyrano[3,4-c]pyridin-6-yl)-N-(4-methoxyphenyl)-2-methylpiperazine-1-carboxamide] | 5.00 to 6.00
35 | C[C@@H]1CN(c2nc(C3CCCCC3)c3c(c2C#N)CCOC3)CCN1C(=O)Nc1ccccc1F [Compound 300, (R)-4-(5-cyano-8-cyclohexyl-3,4-dihydro-1H-pyrano[3,4-c]pyridin-6-yl)-N-(2-fluorophenyl)-2-methylpiperazine-1-carboxamide] | 5.00 to 6.00
36 | Cc1ccc(NC(=O)N2CCN(c3nc(C4CC4)c4c(c3C#N)CC(C)(C)OC4)C[C@H]2C(C)C)cc1 [Compound 301, (R)-4-(5-cyano-8-cyclopropyl-3,3-dimethyl-3,4-dihydro-1H-pyrano[3,4-c]pyridin-6-yl)-2-isopropyl-N-p-tolylpiperazine-1-carboxamide] | 5.00 to 6.00
37 | Cc1ccc(S(=O)(=O)N2CCN(c3nc(C4CC4)c4c(c3C#N)CC(C)(C)OC4)C[C@H]2C(C)C)cc1 [Compound 302, (R)-8-cyclopropyl-6-(3-isopropyl-4-tosylpiperazin-1-yl)-3,3-dimethyl-3,4-dihydro-1H-pyrano[3,4-c]pyridine-5-carbonitrile] | 5.00 to 6.00
38 | CC(C)[C@@H]1CN(c2nc(C3CC3)c3c(c2C#N)CC(C)(C)OC3)CCN1C(=O)Nc1ccc(C#N)cc1 [Compound 303, (R)-4-(5-cyano-8-cyclopropyl-3,3-dimethyl-3,4-dihydro-1H-pyrano[3,4-c]pyridin-6-yl)-N-(4-cyanophenyl)-2-isopropylpiperazine-1-carboxamide] | 5.00 to 6.00
